Biological target: ROCK2 (human) (UniProt O75116)
Assay: Inhibition of ROCK2 Kinase Activity
Conditions: concentration not given here

Chain of ROCK2 (human) (O75116 whole entry, looked up): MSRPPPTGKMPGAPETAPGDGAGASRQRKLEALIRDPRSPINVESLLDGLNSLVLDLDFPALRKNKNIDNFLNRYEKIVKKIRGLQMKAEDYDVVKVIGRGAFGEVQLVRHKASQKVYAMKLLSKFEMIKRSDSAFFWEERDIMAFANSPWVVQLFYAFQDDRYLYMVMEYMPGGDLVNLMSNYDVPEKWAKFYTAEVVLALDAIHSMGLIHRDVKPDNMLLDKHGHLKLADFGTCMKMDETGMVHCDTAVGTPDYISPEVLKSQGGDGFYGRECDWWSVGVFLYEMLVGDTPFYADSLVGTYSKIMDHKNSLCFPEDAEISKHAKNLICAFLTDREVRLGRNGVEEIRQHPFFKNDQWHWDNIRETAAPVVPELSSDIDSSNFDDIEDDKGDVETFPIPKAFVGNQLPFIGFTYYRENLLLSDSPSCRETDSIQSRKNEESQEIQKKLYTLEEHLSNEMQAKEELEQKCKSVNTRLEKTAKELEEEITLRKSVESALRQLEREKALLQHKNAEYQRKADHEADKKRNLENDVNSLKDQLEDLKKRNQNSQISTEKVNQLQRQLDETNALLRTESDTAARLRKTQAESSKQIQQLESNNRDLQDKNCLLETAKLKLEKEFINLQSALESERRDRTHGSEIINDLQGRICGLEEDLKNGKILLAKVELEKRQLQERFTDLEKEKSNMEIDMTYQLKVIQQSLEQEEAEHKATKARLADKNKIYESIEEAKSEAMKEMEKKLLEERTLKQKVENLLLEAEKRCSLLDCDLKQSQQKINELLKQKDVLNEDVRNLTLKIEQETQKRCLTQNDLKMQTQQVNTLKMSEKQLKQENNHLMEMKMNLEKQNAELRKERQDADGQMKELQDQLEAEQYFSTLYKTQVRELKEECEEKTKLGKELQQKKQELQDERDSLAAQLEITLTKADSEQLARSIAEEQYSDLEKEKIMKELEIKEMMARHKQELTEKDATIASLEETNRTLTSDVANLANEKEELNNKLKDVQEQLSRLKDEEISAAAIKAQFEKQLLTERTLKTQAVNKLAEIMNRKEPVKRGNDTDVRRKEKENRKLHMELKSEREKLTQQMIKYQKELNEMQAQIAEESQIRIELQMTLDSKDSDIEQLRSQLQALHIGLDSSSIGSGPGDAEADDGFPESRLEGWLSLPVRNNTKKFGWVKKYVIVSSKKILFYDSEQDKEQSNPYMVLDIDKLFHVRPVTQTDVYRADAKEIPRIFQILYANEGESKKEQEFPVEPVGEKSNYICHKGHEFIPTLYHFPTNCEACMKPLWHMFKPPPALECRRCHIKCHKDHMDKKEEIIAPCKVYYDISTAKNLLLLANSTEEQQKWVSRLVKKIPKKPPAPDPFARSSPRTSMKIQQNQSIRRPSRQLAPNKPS

Row | Compound | inhibition [%]
1 | CSc1ccc(-c2nc3c(Sc4ccc(F)cc4)ncnc3n2C)cc1 | 0
2 | Nc1ncnc2c1ncn2Cc1ccc(F)cc1 | 0
3 | Cn1cnc2c(/C=C/c3ccccc3)ncnc21 | 0
4 | CSc1ccc(-c2nc3c(Sc4ccccc4)ncnc3n2C)cc1 | 0
5 | c1ccc(-n2cnc3ncncc32)cc1 | 0
6 | Fc1ccc(Cn2cnc3c(Cl)ncnc32)cc1 | 0
7 | Cn1c(-c2ccc(S(C)(=O)=O)cc2)nc2c(Sc3ccc(F)cc3)ncnc21 | 0
8 | Cn1c(-c2ccccc2)nc2c(-c3ccc(F)cc3)ncnc21 | 0
9 | Fc1ccc(Cn2cnc3c(Sc4ccc(F)cc4)ncnc32)cc1 | 0
10 | Cn1c(Br)nc2c(Sc3ccccc3)ncnc21 | 0
11 | Cn1cnc2c(Nc3ccccc3)ncnc21 | 0
12 | Cn1c(-c2ccc([S+](C)[O-])cc2)nc2c(Sc3ccc(F)cc3)ncnc21 (centres undefined) | 0
13 | Cn1c(C#CCCO)nc2c(Sc3ccccc3)ncnc21 | 0
14 | C(=C\c1ncnc2[nH]cnc12)/c1ccccc1 | 22
